Reference: patent US12649751B2 (Arcus Biosciences, Inc., priority 2022, dated 2026)
Where two headings read alike, the source gives them in different places.

Columns and labels:
[1] = target: HPK1 (Homo sapiens, UniProt Q92918); test: HPK1 Biochemical Assay (ADP-Glo luminescence; low ATP 10 μM or high ATP 200 μM); details: HPK1 ADP-Glo assay
[2] = tested on: p-SLP-76 (Ser376) in Jurkat cells; test: pSLP76 Cellular Assay (AlphaLISA SureFire Ultra p-SLP-76 (Ser376), anti-CD3 activated Jurkat cells); assay type: cell-based; details: pSLP76 (Ser376) AlphaLISA, anti-CD3 activated Jurkat cells, read-out: Cellular Potency
How it was run: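 Read-out is AlphaLISA p-SLP-76 (Ser376) signal at 570 nm in Jurkat lysates, with IC50 fitted by 4-parameter logistic. Cells were starved overnight, exposed 1 h at 37 °C to 22 twofold compound dilutions in HBSS, then activated 45 min with anti-CD3 (0.025 mg/ml stock added).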

[3] = high ATP (200 μM ATP, 5 nM HPK1), read-out: Biochemical Potency (high ATP)
[4] = low ATP (10 μM ATP, 2 nM HPK1), read-out: Biochemical Potency (low ATP)

Chain of HPK1 (Q92918 whole entry, species assumed): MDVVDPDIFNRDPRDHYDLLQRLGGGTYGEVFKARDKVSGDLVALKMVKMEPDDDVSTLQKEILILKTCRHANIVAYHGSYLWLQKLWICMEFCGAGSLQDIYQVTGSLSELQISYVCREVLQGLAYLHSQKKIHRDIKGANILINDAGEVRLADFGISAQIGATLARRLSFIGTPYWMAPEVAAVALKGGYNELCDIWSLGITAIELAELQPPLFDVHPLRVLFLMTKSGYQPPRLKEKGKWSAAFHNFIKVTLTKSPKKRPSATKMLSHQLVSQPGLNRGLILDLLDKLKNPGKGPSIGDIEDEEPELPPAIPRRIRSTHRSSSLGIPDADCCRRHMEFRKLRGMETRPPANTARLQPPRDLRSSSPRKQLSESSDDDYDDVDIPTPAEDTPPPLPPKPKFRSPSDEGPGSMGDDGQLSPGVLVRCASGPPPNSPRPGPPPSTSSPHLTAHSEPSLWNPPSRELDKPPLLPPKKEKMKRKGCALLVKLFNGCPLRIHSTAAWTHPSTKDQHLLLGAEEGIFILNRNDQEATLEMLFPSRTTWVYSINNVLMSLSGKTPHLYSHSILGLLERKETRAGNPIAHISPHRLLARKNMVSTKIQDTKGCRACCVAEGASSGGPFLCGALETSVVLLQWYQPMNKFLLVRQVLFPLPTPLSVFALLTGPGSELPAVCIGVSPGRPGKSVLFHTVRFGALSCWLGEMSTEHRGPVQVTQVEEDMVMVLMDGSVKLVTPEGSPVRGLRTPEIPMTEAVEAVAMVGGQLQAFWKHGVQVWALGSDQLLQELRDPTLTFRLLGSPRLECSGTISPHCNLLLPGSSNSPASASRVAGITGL

Row | SMILES | IC50 [1, 3] | IC50 [1, 4] | IC50 ([2]; Homo sapiens) | IC50 [2]
1 | Cc1cc(Nc2cc3nc(-c4ncccc4C)sc3cn2)nc(N2C[C@@H]3C[C@H]2CN3)n1 [Example 407] | < 100 nM | < 100 nM | < 100 nM | –
2 | CN1C[C@@H]2C[C@H]1CN2c1nccc(Nc2cc3nc(-c4ccnc(C(C)(O)C(F)(F)F)c4)sc3cn2)n1 (stereo partly drawn) [Example 408] | < 100 nM | < 100 nM | 100 to 1000 nM | –
3 | c1cc(Nc2cc3nc(-c4ncco4)sc3cn2)nc(N2C[C@@H]3C[C@H]2CN3)n1 [Example 409] | < 100 nM | < 100 nM | 100 to 1000 nM | –
4 | CCN1C[C@@H]2C[C@H]1CN2c1nc(C)cc(Nc2cc3nc(-c4cncc(OCC5CC5)c4)sc3cn2)n1 [Example 422] | < 100 nM | – | 100 to 1000 nM | –
5 | OCCN1C[C@@H]2C[C@H]1CN2c1nc(Nc2cc3nc(-c4cnn(CC5CC5)c4)sc3cn2)ccc1F [Example 424] | < 100 nM | – | 100 to 1000 nM | –
6 | c1cnn(-c2nc3cc(Nc4cncc(N5C[C@@H]6C[C@H]5CN6)n4)ncc3s2)c1 [Example 430] | < 100 nM | < 100 nM | 100 to 1000 nM | –
7 | c1cnn(-c2nc3cc(Nc4ccnc(N5C[C@@H]6C[C@H]5CN6)n4)ncc3s2)c1 [Example 431] | < 100 nM | < 100 nM | 100 to 1000 nM | –
8 | Cc1cccnc1-c1nc2cc(Nc3ccc(C4CCOCC4)c(N4C[C@@H]5C[C@H]4CN5)n3)ncc2s1 [Example 432] | – | < 100 nM | < 100 nM | –
9 | Cc1cccnc1-c1nc2cc(Nc3ccc(C4CCOCC4)c(N4C[C@@H]5C[C@H]4CN5C)n3)ncc2s1 [Example 433] | – | < 100 nM | < 100 nM | –
10 | Cc1cccnc1-c1nc2cc(Nc3cc(-c4cnccc4C#N)cc(N4C[C@@H]5C[C@H]4CN5C)n3)ncc2s1 [Example 434] | < 100 nM | – | 100 to 1000 nM | –
11 | Cc1cccnc1-c1nc2cc(Nc3cc(C(C)C)nc(N4C[C@@H]5C[C@H]4CN5)n3)ncc2s1 [Example 435] | < 100 nM | – | 100 to 1000 nM | –
12 | CN1C[C@@H]2C[C@H]1CN2c1nc(Nc2cc3nc(-c4cncc(C(C)(C)O)c4)sc3cn2)cc(C2CCOCC2)n1 [Example 438] | – | < 100 nM | 100 to 1000 nM | –
13 | CS(=O)(=O)c1cccc(-c2nc3cc(Nc4cc(C5CCOCC5)nc(N5C[C@@H]6C[C@H]5CN6)n4)ncc3s2)c1 [Example 443] | < 100 nM | < 100 nM | < 100 nM | –
14 | Cc1cccnc1-c1nc2cc(Nc3cc(C4CCOCC4)nc(N4C[C@@H]5C[C@H]4CN5)n3)ncc2s1 [Example 444] | – | < 100 nM | < 100 nM | –
15 | Cc1cc(Nc2cc3nc(-c4ccnc(N5CCO[C@@H](C)C5)c4)sc3cn2)nc(N2C[C@@H]3C[C@H]2CN3CCO)n1 [Example 446] | < 100 nM | – | 100 to 1000 nM | –
16 | Cc1cc(Nc2cc3nc(-c4ccnc(N5C6CCC5COC6)c4)sc3cn2)nc(N2C[C@@H]3C[C@H]2CN3CCO)n1 [Example 447] | < 100 nM | – | < 100 nM | –
17 | Cc1cc(Nc2cc3nc(-c4ccnc(N5CC6CCC(C5)O6)c4)sc3cn2)nc(N2C[C@@H]3C[C@H]2CN3CCO)n1 [Example 448] | < 100 nM | – | 100 to 1000 nM | –
18 | Cc1cc(Nc2cc3nc(-c4ccnc(N5CCCOCC5)c4)sc3cn2)nc(N2C[C@@H]3C[C@H]2CN3CCO)n1 [Example 449] | < 100 nM | – | 100 to 1000 nM | –
19 | Cc1cc(Nc2cc3nc(-c4ccnc(N5CCOC[C@H]5C)c4)sc3cn2)nc(N2C[C@@H]3C[C@H]2CN3CCO)n1 [Example 450] | < 100 nM | – | < 100 nM | –
20 | Cc1cc(Nc2cc3nc(-c4ccnc(N5CCO[C@H](C)C5)c4)sc3cn2)nc(N2C[C@@H]3C[C@H]2CN3CCO)n1 [Example 451] | < 100 nM | – | 100 to 1000 nM | –
21 | Cc1cc(Nc2cc3nc(-c4ccnc(N5C[C@H]6COC[C@H]6C5)c4)sc3cn2)nc(N2C[C@@H]3C[C@H]2CN3CCO)n1 [Example 452] | < 100 nM | – | 100 to 1000 nM | –
22 | CO[C@@H]1CCN(c2cc(-c3nc4cc(Nc5cc(C)nc(N6C[C@@H]7C[C@H]6CN7CCO)n5)ncc4s3)ccn2)C1 [Example 453] | < 100 nM | – | 100 to 1000 nM | –
23 | Cc1cc(Nc2cc3nc(-c4ccnc(N5CCOCC5)c4)sc3cn2)nc(N2C[C@@H]3C[C@H]2CN3CCO)n1 [Example 458] | < 100 nM | – | 100 to 1000 nM | –
24 | CN1C[C@@H]2C[C@H]1CN2c1nccc(Nc2cc3nc(-c4ccnc(N5CCOCC5)c4)sc3cn2)n1 [Example 460] | – | < 100 nM | – | 100 to 1000 nM
25 | CN1C[C@@H]2C[C@H]1CN2c1nccc(Nc2cc3nc(-c4ccnc(N5CC[C@@H](O)C5)c4)sc3cn2)n1 [Example 464] | – | < 100 nM | – | 100 to 1000 nM
26 | CCN1C[C@@H]2C[C@H]1CN2c1nc(C)cc(Nc2cc3nc(-c4cc(C)cc(N5C(=O)CC[C@H]5C)c4)sc3cn2)n1 [Example 466] | < 100 nM | – | 100 to 1000 nM | –
27 | CCN1C[C@@H]2C[C@H]1CN2c1nc(C)cc(Nc2cc3nc(-c4cncc(N5CCC(F)CC5)c4)sc3cn2)n1 [Example 470] | < 100 nM | – | 100 to 1000 nM | –
28 | CCN1C[C@@H]2C[C@H]1CN2c1nc(C)cc(Nc2cc3nc(-c4cncc(N5C[C@H]6COC[C@H]6C5)c4)sc3cn2)n1 [Example 472] | < 100 nM | – | 100 to 1000 nM | –
29 | CCN1C[C@@H]2C[C@H]1CN2c1nc(C)cc(Nc2cc3nc(-c4ccnc(N5CCOC[C@H]5C(C)C)c4)sc3cn2)n1 [Example 474] | < 100 nM | – | < 100 nM | –

Continued, values first:

Row | IC50 [1, 3] | IC50 [1, 4] | IC50 ([2]; Homo sapiens) | IC50 [2] | SMILES
30 | < 100 nM | < 100 nM | 100 to 1000 nM | – | CN1C[C@@H]2C[C@H]1CN2c1cncc(Nc2cc3nc(-c4cccc(C(C)(O)C(F)(F)F)c4)sc3cn2)n1 (stereo partly drawn) [Example 410]
31 | < 100 nM | < 100 nM | 100 to 1000 nM | – | CN1C[C@@H]2C[C@H]1CN2c1cncc(Nc2cc3nc(-c4cccc(NS(C)(=O)=O)c4)sc3cn2)n1 [Example 412]
32 | < 100 nM | < 100 nM | 1000 to 5000 nM | – | CN1C[C@@H]2C[C@H]1CN2c1nccc(Nc2cc3nc(-c4cccc(NS(C)(=O)=O)c4)sc3cn2)n1 [Example 413]
33 | – | < 100 nM | 1000 to 5000 nM | – | CN1C[C@@H]2C[C@H]1CN2c1cncc(Nc2cc3nc(-c4cccc(S(=O)(=O)N(C)C)c4)sc3cn2)n1 [Example 414]
34 | – | < 100 nM | 100 to 1000 nM | – | CN1C[C@@H]2C[C@H]1CN2c1nccc(Nc2cc3nc(-c4cccc(S(=O)(=O)N(C)C)c4)sc3cn2)n1 [Example 415]
35 | – | < 100 nM | 100 to 1000 nM | – | CNS(=O)(=O)c1cccc(-c2nc3cc(Nc4cncc(N5C[C@@H]6C[C@H]5CN6C)n4)ncc3s2)c1 [Example 416]
36 | < 100 nM | – | 100 to 1000 nM | – | CC(=O)Nc1cccc(-c2nc3cc(Nc4cc(C)nc(N5C[C@@H]6C[C@H]5CN6C)n4)ncc3s2)c1 [Example 423]
37 | < 100 nM | – | 1000 to 5000 nM | – | CCN1C[C@@H]2C[C@H]1CN2c1nc(C)cc(Nc2cc3nc(N[C@H](C)c4ccccc4)sc3cn2)n1 [Example 425]
38 | < 100 nM | – | 100 to 1000 nM | – | Cc1cc(Nc2cc3nc(-n4cc(F)cn4)sc3cn2)nc(N2C[C@@H]3C[C@H]2CN3C)n1 [Example 429]
39 | < 100 nM | – | 100 to 1000 nM | – | Cc1cccnc1-c1nc2cc(Nc3cc(C4CC4)nc(N4C[C@@H]5C[C@H]4CN5C)n3)ncc2s1 [Example 436]
40 | < 100 nM | < 100 nM | < 100 nM | – | CN1C[C@@H]2C[C@H]1CN2c1nc(Nc2cc3nc(-c4cccc(C(C)(C)O)c4)sc3cn2)cc(C2CCOCC2)n1 [Example 440]
41 | < 100 nM | – | 100 to 1000 nM | – | Cc1cc(Nc2cc3nc(-c4ccnc(N5C[C@@H](C)O[C@@H](C)C5)c4)sc3cn2)nc(N2C[C@@H]3C[C@H]2CN3CCO)n1 [Example 445]
42 | < 100 nM | – | 100 to 1000 nM | – | CO[C@H]1CCN(c2cc(-c3nc4cc(Nc5cc(C)nc(N6C[C@@H]7C[C@H]6CN7CCO)n5)ncc4s3)ccn2)C1 [Example 454]
43 | < 100 nM | – | 100 to 1000 nM | – | Cc1cc(Nc2cc3nc(-c4ccnc(N5CCOC[C@H]5C)c4)sc3cn2)nc(N2C[C@@H]3C[C@H]2CN3C)n1 [Example 455]
44 | < 100 nM | – | 1000 to 5000 nM | – | COC1CCN(c2cc(-c3nc4cc(Nc5cc(C)nc(N6C[C@@H]7C[C@H]6CN7C)n5)ncc4s3)ccn2)CC1 [Example 456]
45 | < 100 nM | – | 100 to 1000 nM | – | Cc1cc(Nc2cc3nc(-c4ccnc(N5C[C@H]6COC[C@H]6C5)c4)sc3cn2)nc(N2C[C@@H]3C[C@H]2CN3C)n1 [Example 457]
46 | < 100 nM | – | < 100 nM | – | Cc1cc(Nc2cc3nc(-c4c(C)ccc(C(C)(C)O)c4C)sc3cn2)nc(N2C[C@@H]3C[C@H]2CN3C)n1 [Example 467]
47 | < 100 nM | – | 100 to 1000 nM | – | Cc1cc(Nc2cc3nc(-c4ncccc4OC(F)F)sc3cn2)nc(N2C[C@@H]3C[C@H]2CN3C)n1 [Example 468]
48 | < 100 nM | – | 100 to 1000 nM | – | COc1cccnc1-c1nc2cc(Nc3cc(C)nc(N4C[C@@H]5C[C@H]4CN5C)n3)ncc2s1 [Example 469]
49 | < 100 nM | – | 100 to 1000 nM | – | CCN1C[C@@H]2C[C@H]1CN2c1nc(C)cc(Nc2cc3nc(-c4cncc(N[C@H](C)c5ccccc5)c4)sc3cn2)n1 [Example 471]
